According to patent publication US7247646B2, “Benzopyranone compounds, compositions thereof, and methods of treatment therewith” (Signal Pharmaceuticals, LLC, priority 2003, dated 2007):
Values joined by “and” are separate entries in the source; they are usually repeats but may differ in a detail not shown here. Equal values may be shown once.

Key:
Assay type in all cases: cell-based
human ER-α = molecular target: T1, human ER-α (Homo sapiens, UniProt P03372); test: Inhibition of IL-6 release from U-2 OS osteosarcoma cells stably transfected with human ER-α; conditions: IL-6 production (ELISA) after 2.5 ng/ml TNFα and 1 ng/ml IL-1β stimulation, 24 h; compound 0.01–1000 nM; vehicle = 100%; read-out: IC50 (nM) U2 OS (ER-α)
T1 construct: stably transfected with expression vectors for human full-length ER-α or ER-β; expressed in transfected cells
T1 sequence (P03372 1-595): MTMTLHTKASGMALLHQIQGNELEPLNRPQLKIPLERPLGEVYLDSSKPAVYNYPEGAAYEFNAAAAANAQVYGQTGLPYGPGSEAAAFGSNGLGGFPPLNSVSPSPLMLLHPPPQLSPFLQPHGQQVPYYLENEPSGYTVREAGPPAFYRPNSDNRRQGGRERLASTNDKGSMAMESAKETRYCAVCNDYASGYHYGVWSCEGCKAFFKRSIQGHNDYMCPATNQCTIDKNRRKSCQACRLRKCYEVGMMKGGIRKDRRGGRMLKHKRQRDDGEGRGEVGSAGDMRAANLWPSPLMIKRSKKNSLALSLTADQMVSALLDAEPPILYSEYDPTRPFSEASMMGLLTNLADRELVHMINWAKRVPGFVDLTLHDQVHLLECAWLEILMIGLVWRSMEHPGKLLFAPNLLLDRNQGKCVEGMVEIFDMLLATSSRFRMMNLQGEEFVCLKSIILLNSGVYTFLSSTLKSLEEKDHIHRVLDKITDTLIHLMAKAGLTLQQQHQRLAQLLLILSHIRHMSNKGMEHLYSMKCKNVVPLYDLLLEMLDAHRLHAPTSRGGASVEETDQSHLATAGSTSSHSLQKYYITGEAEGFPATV
Procedure: (§1) Illustrative Benzopyranone Compounds were tested for their ability to inhibit IL-6 release from human U-2 OS osteosarcoma cells stably transfected with human ER-α or ER-β. (Stein, B.; Yang, M. X. Mol. Cell. Biol 15: 4971–4979, 1995; Poli, V. et. al., EMBO J. 13:1189–1196, 1994). […] Benzopyranone Compounds having an IC50<100 nM are particularly useful as bone resorption inhibitors in vivo. Accordingly, the Benzopyranone Compounds, are particularly useful for the treatment of osteoporosis, Paget's disease and metastatic bone cancer. These Benzopyranone Compounds are also useful as anti-cancer agents, since elevated IL-6 levels are responsible for certain cancers such as multiple myeloma, prostate cancer, ovarian cancer, renal carcinoma and cervical carcinoma.
(§2) Human U-2 OS osteosarcoma cells (ATCC) were stably transfected with expression vectors for human full-length ER-α or ER-β using standard molecular biology techniques. Stable subclones were generated that expressed high levels of ER-α or ER-β mRNA. The expression of ER-α or ER-β was confirmed using RNase protection analysis.
(§3) Cells were plated into 96-well plates at a density of 80,000 cells per well in phenol red-free media with charcoal-stripped fetal calf serum. Twenty four hours later, cells were either treated with vehicle (0.2% DMSO) or a Benzopyranone Compound (0.01–1000 nm in 0.2% DMSO). Thirty minutes later cells were stimulated with 2.5 ng/ml TNFα and 1 ng/ml IL-1β. Twenty-four hours later the media supernatant was analyzed for cytokine production (IL-6) using commercially available ELISA kits following the manufacturer's instructions. Cytokine production in the presence of vehicle (0.2% DMSO) was set to 100%.
(§4) The results (Table 2) are expressed as an IC50 (nM) value which is the concentration of the Benzopyranone Compound sufficient to inhibit the production of IL-6 50% relative to the amount of IL-6 produced in the presence of vehicle.

[1] = test system: MCF-7 breast cancer cells; test: Inhibition of 17β-estradiol-dependent MCF-7 breast cancer cell proliferation (3H-thymidine incorporation); conditions: Homo sapiens, MCF7; with 0.1 nM 17β-estradiol, 72 h, then 3H-thymidine 4 h; compound 0.1–1000 nM
Procedure: MCF-7 cells represent an excellent in vitro system to study the effects of compounds on estrogen-dependent breast cancer growth. (May, F. E. B.; Westley, B. R. J. Biol. Chem. 262:15894–15899, 1987). Benzopyranone Compounds having an IC50<100 nM are particularly useful as anti-breast cancer agents in vivo.
MCF-7 breast carcinoma cells were plated in 24-well dishes at a density of 5×10^3 cells/well in phenol-red free DMEM:F-12 (1:1) medium containing 1% antibiotics, 0.05% mercaptoethanol, 0.01% ethanolamine, 0.42 ng/mL sodium selenite and 5% charcoal-stripped FCS.
Illustrative Benzopyranone Compounds (0.1–1000 nM in 0.2% DMSO) and 0.1 nM 17β-estradiol were added to the cultured MCF-7 breast cancer cells for 72 h. Subsequently, ^3H-labeled thymidine was added and its incorporation into cells was measured following 4 h incubation. The results (Table 2) are expressed as an IC50 (nM) value which is the concentration of the Benzopyranone Compound sufficient to inhibit the growth of MCF-7 breast cancer cells by 50% relative to controls.

human ER-β = molecular target: T2, human ER-β (Homo sapiens, UniProt Q92731); test: Inhibition of IL-6 release from U-2 OS osteosarcoma cells stably transfected with human ER-β; conditions: IL-6 production (ELISA) after 2.5 ng/ml TNFα and 1 ng/ml IL-1β stimulation, 24 h; compound 0.01–1000 nM; vehicle = 100%; read-out: IC50 (nM) U2 OS (ER-β)
T2 construct: stably transfected with expression vectors for human full-length ER-α or ER-β; expressed in transfected cells
Procedure: as §1, §2, §3, §4

T2 sequence (Q92731 whole entry): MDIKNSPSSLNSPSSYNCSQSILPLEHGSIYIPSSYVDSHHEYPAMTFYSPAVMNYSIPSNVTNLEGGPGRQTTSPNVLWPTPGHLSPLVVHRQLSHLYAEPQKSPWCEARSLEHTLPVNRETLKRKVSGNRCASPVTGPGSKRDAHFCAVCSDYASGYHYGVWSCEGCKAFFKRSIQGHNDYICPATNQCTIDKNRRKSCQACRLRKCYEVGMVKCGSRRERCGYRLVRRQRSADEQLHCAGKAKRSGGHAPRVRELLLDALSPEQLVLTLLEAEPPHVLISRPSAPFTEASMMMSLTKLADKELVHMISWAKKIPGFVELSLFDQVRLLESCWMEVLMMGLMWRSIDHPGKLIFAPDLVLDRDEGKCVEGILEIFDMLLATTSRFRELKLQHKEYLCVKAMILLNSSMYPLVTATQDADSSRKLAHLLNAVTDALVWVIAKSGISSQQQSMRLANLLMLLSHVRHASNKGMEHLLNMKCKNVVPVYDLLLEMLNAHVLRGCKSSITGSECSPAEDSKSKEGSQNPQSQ

`Cc1cc2c(Cc3ccc(OCCN4CCCC4)cc3)c(-c3ccc(C(F)(F)F)cc3)c(=O)oc2cc1O` gave an IC50 (human ER-α) of 13.3 nM, an IC50 [1] of 59.5 nM and an IC50 (human ER-β) greater than 1000 nM.
In the case of `CC(=O)c1cc2c(Cc3ccc(OCCN4CCCC4)cc3)c(-c3ccc(C(F)(F)F)cc3)c(=O)oc2cc1O`, the IC50 (human ER-α) is reported as 850 nM and > 1000 nM, the IC50 [1] is reported as greater than 1000 nM and the IC50 (human ER-β) is reported as greater than 1000 nM.
For `CC(O)c1cc2c(Cc3ccc(OCCN4CCCC4)cc3)c(-c3ccc(C(F)(F)F)cc3)c(=O)oc2cc1O` (stereo not shown), the IC50 (human ER-α) was 850 nM and > 1000 nM and the IC50 (human ER-β) was greater than 1000 nM.
In the case of `O=c1oc2cc(O)c(Br)cc2c(Cc2ccc(OCCN3CCCC3)cc2)c1-c1ccc(C(F)(F)F)cc1`, the IC50 (human ER-α) is reported as 310 nM and > 1000 nM, the IC50 [1] is reported as greater than 1000 nM and the IC50 (human ER-β) is reported as greater than 1000 nM.
Work on `Cc1cc2c(Cc3ccc(OCCN4CCCC4)cc3)c(-c3ccc(Cl)cc3Cl)c(=O)oc2cc1O` yielded an IC50 (human ER-α) of 1.7 nM, an IC50 [1] of 10 nM and an IC50 (human ER-β) greater than 1000 nM.
For `Cc1c(O)ccc2c(Cc3ccc(OCCN4CCCC4)cc3)c(-c3ccc(C(F)(F)F)cc3)c(=O)oc12`, the IC50 (human ER-α) was 55.5 nM, the IC50 [1] was 235 nM and the IC50 (human ER-β) was less than 1000 nM.
`Cc1c(O)ccc2c(Cc3ccc(OCCN4CCCC4)cc3)c(-c3ccc(Cl)cc3Cl)c(=O)oc12` gave an IC50 (human ER-α) of 6.9 nM, an IC50 [1] of 35 nM and an IC50 (human ER-β) of less than 1000 nM.
`CC(=O)c1c(O)ccc2c(Cc3ccc(OCCN4CCCC4)cc3)c(-c3ccc(C(F)(F)F)cc3)c(=O)oc12` gave an IC50 (human ER-α) of 39 nM, an IC50 [1] of 185 nM and an IC50 (human ER-β) of less than 1000 nM.
`CC(=O)c1c(O)ccc2c(Cc3ccc(OCCN4CCCC4)cc3)c(-c3ccc(Cl)cc3Cl)c(=O)oc12` was tested, and the IC50 (human ER-α) was 5 nM, the IC50 [1] was 112 nM and the IC50 (human ER-β) was less than 1000 nM.
In the case of `Cc1c(O)ccc2c(Cc3ccc(OCCN4CCCC4)cc3)c(-c3ccc(Cl)cc3)c(=O)oc12`, the IC50 (human ER-α) is reported as 285 nM, the IC50 [1] is reported as less than 1000 nM and the IC50 (human ER-β) is reported as less than 1000 nM.
In the case of `N#Cc1c(O)ccc2c(Cc3ccc(OCCN4CCCC4)cc3)c(-c3ccc(C(F)(F)F)cc3)c(=O)oc12`, the IC50 (human ER-α) is reported as 390 nM and the IC50 (human ER-β) is reported as greater than 1000 nM.
